Structures are written as SMILES. “And” between values parts separate entries of the source, which are not always exact repeats. Equal entries are not always repeated.

Among the data in US10798941B2, “Microbiocidal oxadiazole derivatives” (SYNGENTA PARTICIPATIONS AG, priority 2016, dated 2020) are pest or weed control, inhibition of growth and melting point values, retold here.

In one data set the test system is Phakopsora pachyrhizi. Description: Phakopsora pachyrhizi / soybean / leaf disc preventative (Asian soybean rust). It counts as in vivo. The settings on record: foliar, 288 h, 200 ppm in the applied formulation, soybean leaf disks, inoculated one day after application, assessed 12 to 14 days after application, vs untreated, read-out: disease control. In outline:
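Read-out is percent disease control relative to untreated check discs, assessed once untreated discs show adequate disease, 12 to 14 days after application. Compounds, tested at 200 ppm in the applied formulation, are sprayed onto soybean leaf discs one day before inoculation with a spore suspension.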

Data set [1] relates to Glomerella Lagenarium (Colletotrichum Lagenarium). As to the kind of experiment: Glomerella lagenarium (Colletotrichum lagenarium) liquid culture / cucumber / preventative (anthracnose). Format: cell-based. As to conditions: Colletotrichum orbiculare; 20 ppm in the applied formulation; liquid culture in PDB, 24° C., inhibition of growth measured photometrically 3 to 4 days after application, vs untreated; read-out: disease control. In outline:
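Conidia from cryogenic storage were mixed into potato dextrose broth. This was added to compound diluted from DMSO into 0.025% Tween20, tested at 20 ppm. Plates were incubated in the dark at 24 °C and 96% relative humidity, and growth was read photometrically after 2–7 days as % activity versus untreated check.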

Data set [2] concerns Puccinia recondita f. Sp. Tritici. As to the kind of experiment: Puccinia recondita f. sp. tritici / wheat / leaf disc preventative (brown rust). It counts as in vivo. The settings on record: foliar, 168 h, 200 ppm in the applied formulation, wheat leaf segments cv. Kanzler, preventative, inoculated 1 day after application, assessed 7 to 9 days after application, vs untreated, read-out: disease control. In outline:
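Wheat cv. Kanzler leaf segments on agar were sprayed with formulated compound in water, then inoculated with spores 1 day later. Incubated at 19° C, 75% rh, 12 h light/12 h dark; percent disease control versus untreated scored 7 to 9 days after application.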

For data set [3] the test system is unchanged. Description: Puccinia recondita f. sp. tritici / wheat / leaf disc curative (brown rust). It counts as in vivo. The settings on record: foliar, 144 h, 200 ppm in the applied formulation, wheat leaf segments cv. Kanzler, applied 1 day after inoculation, assessed 6 to 8 days after application, vs untreated, read-out: disease control. Summed up: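 Read-out is percent disease control relative to untreated segments, assessed 6 to 8 days after treatment once check disease is adequate. Kanzler wheat leaf segments on agar receive fungal spores, then test compound (DMSO stock diluted in 0.025% Tween20 or water) 1 day later, under 19° C and 75% relative humidity.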

On to `FC(F)(F)c1nc(-c2ccc(Cn3cc(C4CCCC4)nn3)cc2)no1` [Compound 1.24, 3-[4-[(4-cyclopentyltriazol-1-yl)methyl]phenyl]-5-(trifluoromethyl)-1,2,4-oxadiazole], for which the melting point (in general, the temperature of the solid-liquid transition) was 117.9 to 118.8 °C and 117 to 119 °C. Also, the pest or weed control at 200 ppm in the data set with Phakopsora pachyrhizi was not below 80%. Also, the inhibition of growth at 20 ppm in data set [1] is not below 80%. In data set [2], the pest or weed control at 200 ppm was not below 80%.
In the case of `FC(F)(F)c1nc(-c2ccc(Cn3cc(COc4ccccc4)nn3)cc2)no1` [Compound 1.28, 3-[4-[[4-(phenoxymethyl)triazol-1-yl]methyl]phenyl]-5-(trifluoromethyl)-1,2,4-oxadiazole], the melting point fell in the range of 103.2 to 104.9 °C. Moreover, the pest or weed control at 200 ppm in the data set with Phakopsora pachyrhizi is not below 80%. For the same compound, the inhibition of growth at 20 ppm in data set [1] is not below 80%. In data set [2], the pest or weed control at 200 ppm was not below 80%.
For the compound `COc1cc(-c2noc(C(F)(F)F)n2)ccc1Cn1cncn1` [Compound 1.97, 3-[3-methoxy-4-(1,2,4-triazol-1-ylmethyl)phenyl]-5-(trifluoromethyl)-1,2,4-oxadiazole], the melting point was in the range of 102 to 106 °C. For the same compound, in data set [1], the inhibition of growth at 20 ppm was not below 80%. The pest or weed control at 200 ppm in data set [3] was not below 80%.
Turning to `N#Cc1ncn(Cc2ccc(-c3noc(C(F)(F)F)n3)c(F)c2)n1` [Compound 1.255, 1-[[3-fluoro-4-[5-(trifluoromethyl)-1,2,4-oxadiazol-3-yl]phenyl]methyl]-1,2,4-triazole-3-carbonitrile], the melting point was 120 to 123 °C. In data set [1], the inhibition of growth at 20 ppm is not below 80%. For the same compound, the pest or weed control at 200 ppm in data set [2] is not below 80%. In addition, the pest or weed control at 200 ppm in data set [3] was not below 80%.
Compound `CCOC(=O)c1cnn(Cc2ccc(-c3noc(C(F)(F)F)n3)nc2)c1` [Compound 1.269, ethyl 1-[[6-[5-(trifluoromethyl)-1,2,4-oxadiazol-3-yl]-3-pyridyl]methyl]pyrazole-4-carboxylate] came in with a melting point of 88 to 90 °C. Also, the inhibition of growth at 20 ppm in data set [1] is not below 80%. Further, the pest or weed control at 200 ppm in data set [2] was not below 80%. Besides, in data set [3], the pest or weed control at 200 ppm is not below 80%.
As for `O=C(O)c1cn(Cc2ccc(-c3noc(C(F)(F)F)n3)cc2)nn1` [Compound 1.271, 1-[[4-[5-(trifluoromethyl)-1,2,4-oxadiazol-3-yl]phenyl]methyl]triazole-4-carboxylic acid], the melting point was in the range of 208 to 210 °C. Also, in data set [2], the pest or weed control at 200 ppm was not below 80%. The pest or weed control at 200 ppm in data set [3] is not below 80%.
The compound `CCOC(=O)c1cn(Cc2ccc(-c3noc(C(F)(F)F)n3)cc2)nn1` [Compound 1.276, ethyl 1-[[4-[5-(trifluoromethyl)-1,2,4-oxadiazol-3-yl]phenyl]methyl]triazole-4-carboxylate] showed a melting point of 134 to 136 °C. Further, in the data set on Phakopsora pachyrhizi, the pest or weed control at 200 ppm is not below 80%. Moreover, in data set [1], the inhibition of growth at 20 ppm was not below 80%. For the same compound, in data set [2], the pest or weed control at 200 ppm was not below 80%.
Regarding `CC(C)OC(=O)c1cn(Cc2ccc(-c3noc(C(F)(F)F)n3)cc2)nn1` [Compound 1.278, isopropyl 1-[[4-[5-(trifluoromethyl)-1,2,4-oxadiazol-3-yl]phenyl]methyl]triazole-4-carboxylate], the melting point lay in the range of 146 to 148 °C. Besides, the pest or weed control at 200 ppm in the data set with Phakopsora pachyrhizi was not below 80%. In addition, the inhibition of growth at 20 ppm in data set [1] was not below 80%. Also, the pest or weed control at 200 ppm in data set [2] is not below 80%.
Compound `COc1ccc(NC(=O)c2cn(Cc3ccc(-c4noc(C(F)(F)F)n4)cc3)nn2)cc1` [Compound 1.281, N-(4-methoxyphenyl)-1-[[4-[5-(trifluoromethyl)-1,2,4-oxadiazol-3-yl]phenyl]methyl]triazole-4-carboxamide] returned a melting point of 205 to 207 °C. In data set [1], the inhibition of growth at 20 ppm was not below 80%. Also, the pest or weed control at 200 ppm in data set [2] was not below 80%. Also, the pest or weed control at 200 ppm in data set [3] was not below 80%.
`CCON=Cc1cnn(Cc2ccc(-c3noc(C(F)(F)F)n3)cc2)c1` [Compound 1.286, N-ethoxy-1-[1-[[4-[5-(trifluoromethyl)-1,2,4-oxadiazol-3-yl]phenyl]methyl]pyrazol-4-yl]methanimine] had a melting point of 80 to 120 °C. The pest or weed control at 200 ppm in the data set with Phakopsora pachyrhizi was not below 80%. In data set [1], the inhibition of growth at 20 ppm is not below 80%. Moreover, the pest or weed control at 200 ppm in data set [2] is not below 80%.
`CCCON=Cc1cnn(Cc2ccc(-c3noc(C(F)(F)F)n3)cc2)c1` [Compound 1.287, N-propoxy-1-[1-[[4-[5-(trifluoromethyl)-1,2,4-oxadiazol-3-yl]phenyl]methyl]pyrazol-4-yl]methanimine] yielded a melting point of 60 to 95 °C. Also, the inhibition of growth at 20 ppm in data set [1] was not below 80%. Moreover, in data set [2], the pest or weed control at 200 ppm is not below 80%. In addition, the pest or weed control at 200 ppm in data set [3] is not below 80%.
`CNC(=O)c1cnnn1Cc1ccc(-c2noc(C(F)(F)F)n2)cc1` [Compound 1.291, N-methyl-3-[[4-[5-(trifluoromethyl)-1,2,4-oxadiazol-3-yl]phenyl]methyl]triazole-4-carboxamide] yielded a melting point of 222 to 224 °C. For the same compound, the pest or weed control at 200 ppm in data set [3] was not below 80%.
In turn, `CS(=O)(=O)c1ncnn1Cc1ccc(-c2noc(C(F)(F)F)n2)cc1` [Compound 1.294, 3-[4-[(5-methylsulfonyl-1,2,4-triazol-1-yl)methyl]phenyl]-5-(trifluoromethyl)-1,2,4-oxadiazole] came in with a melting point of 119.2 to 119.8 °C. Further, the inhibition of growth at 20 ppm in data set [1] was not below 80%. In data set [2], the pest or weed control at 200 ppm was not below 80%. The pest or weed control at 200 ppm in data set [3] is not below 80%.
Take `C[S+]([O-])c1ncnn1Cc1ccc(-c2noc(C(F)(F)F)n2)cc1` (stereo not drawn) [Compound 1.295, 3-[4-[(5-methylsulfinyl-1,2,4-triazol-1-yl)methyl]phenyl]-5-(trifluoromethyl)-1,2,4-oxadiazole]: the melting point is 71.2 to 73.7 °C. Further, in data set [1], the inhibition of growth at 20 ppm is not below 80%. Further, the pest or weed control at 200 ppm in data set [2] is not below 80%. In addition, the pest or weed control at 200 ppm in data set [3] was not below 80%.
As for `CS(=O)(=O)c1ncn(Cc2ccc(-c3noc(C(F)(F)F)n3)cc2)n1` [Compound 1.296, 3-[4-[(3-methylsulfonyl-1,2,4-triazol-1-yl)methyl]phenyl]-5-(trifluoromethyl)-1,2,4-oxadiazole], the melting point lay within 145.4 to 146.4 °C. In data set [1], the inhibition of growth at 20 ppm was not below 80%. For the same compound, the pest or weed control at 200 ppm in data set [2] was not below 80%. Moreover, the pest or weed control at 200 ppm in data set [3] is not below 80%.
With `C[S+]([O-])c1ncn(Cc2ccc(-c3noc(C(F)(F)F)n3)cc2)n1` (stereo not drawn) [Compound 1.297, 3-[4-[(3-methylsulfinyl-1,2,4-triazol-1-yl)methyl]phenyl]-5-(trifluoromethyl)-1,2,4-oxadiazole], the melting point is 114.4 to 115.2 °C. Besides, the inhibition of growth at 20 ppm in data set [1] is not below 80%. Moreover, the pest or weed control at 200 ppm in data set [2] is not below 80%. Besides, in data set [3], the pest or weed control at 200 ppm is not below 80%.
Compound `CSc1ncnn1Cc1ccc(-c2noc(C(F)(F)F)n2)cc1` [Compound 1.298, 3-[4-[(5-methylsulfanyl-1,2,4-triazol-1-yl)methyl]phenyl]-5-(trifluoromethyl)-1,2,4-oxadiazole] yielded a melting point of 72 to 73.2 °C. In data set [1], the inhibition of growth at 20 ppm was not below 80%. Moreover, in data set [2], the pest or weed control at 200 ppm was not below 80%. Also, in data set [3], the pest or weed control at 200 ppm was not below 80%.
`CSc1ncn(Cc2ccc(-c3noc(C(F)(F)F)n3)cc2)n1` [Compound 1.299, 3-[4-[(3-methylsulfanyl-1,2,4-triazol-1-yl)methyl]phenyl]-5-(trifluoromethyl)-1,2,4-oxadiazole]: the melting point fell in the range of 88 to 90.4 °C. Besides, the inhibition of growth at 20 ppm in data set [1] is not below 80%. For the same compound, the pest or weed control at 200 ppm in data set [2] was not below 80%. In addition, the pest or weed control at 200 ppm in data set [3] was not below 80%.
Compound `FC(F)(F)c1nc(-c2ccc(CN3CCSCC3)cc2)no1` [Compound 1.302, 3-[4-(thiomorpholino-methyl)phenyl]-5-(trifluoromethyl)-1,2,4-oxadiazole] displayed a melting point of 54.5 to 56.6 °C. The inhibition of growth at 20 ppm in data set [1] was not below 80%. Moreover, the pest or weed control at 200 ppm in data set [2] is not below 80%. Further, the pest or weed control at 200 ppm in data set [3] is not below 80%.
The compound `CCOC(=O)c1cnn(CCc2ccc(-c3noc(C(F)(F)F)n3)cc2)c1` [Compound 1.310, ethyl 1-[2-[4-[5-(trifluoromethyl)-1,2,4-oxadiazol-3-yl]phenyl]ethyl]pyrazole-4-carboxylate] returned a melting point of 108 to 110 °C. Further, the pest or weed control at 200 ppm with Phakopsora pachyrhizi is not below 80%. Also, the pest or weed control at 200 ppm in data set [2] is not below 80%.
